These results are taken from patent US4780452A, “F-substituted-3-β-D-ribofuranosyl-3H-imidazo[4,5-b]pyridines and pharmaceutical compositions thereof” (Burroughs Wellcome Co., priority 1986, dated 1988).

Data set [1] can be described thus: Yeast-induced hyperthermia assay, antipyretic activity. As to conditions: po; rat, n exceeds 10. It counts as in vivo. The text has this:
The Yeast-induced hyperthermia assay was used according to the procedure described by Khalili-Varasteh et al. in Arch. Int. Pharmacodyn.

Data set [2] is described as follows: New Trypsin Hyperalgesic Assay (NTHA). As to conditions: po, 1 h, read-out: ED50, analgesic activity, NTHA (Rat): dose which reduced the average pain score 50% relative to solvent control. It counts as in vivo. As to the method: A sensitive mild analgesic assay is the New Trypsin Hyperalgesic Assay (NTHA). At the start of the assay 250 μg of trypsin is injected in one hindlimb of each rat. Thirty minutes later each drug is given per os. One hour after the drugs are given the sensitivity of each rat to a 3.0 kg force is determined.

The nature of data set [3]: Acetic Acid Writhing Test (AAWT), mouse. It counts as in vivo. As to conditions: po, read-out: ED50, analgesic activity, AAWT (Mouse). The text has this:
(§1) Using the procedure described by Koster et al. in Fed. […] 26, Anti-inflammatory Drugs, Ed.
For orientation: Writhing tests count abdominal constrictions after an irritant is injected.

Data set [4] in a line: Acetic Acid Writhing Test (AAWT), rat. As to conditions: po, read-out: ED50, analgesic activity, AAWT (Rat). The data set is classed as in vivo.
Description: as §1

Data set [5] in a line: Carrageenin Pleurisy Assay (CPA), acute anti-inflammatory activity. It counts as in vivo, rat. As to conditions: po, read-out: ED50, acute anti-inflammatory activity (CPA): dose required to reduce the 3 hour exudate volume by 50%. As to the method:
Following the procedure described by Vinegar et al. in Proc. Soc. Exp. Biol. Med. 151, 5546, (1976), the acute anti-inflammatory activity of the Compound A (defined in Example 16, vide supra) was compared with that of known anti-inflammatory drugs, i.e., aspirin an acetaminophen in the rat. The average 3 hour exudate volume for each drug treated group was determined and the % inhibition relative to a solvent control group calculated, the ED50 being the dose required to reduce the 3 hour exudate volume by 50%.

A short description of data set [6]: Toxicity (LD50). As to conditions: rat, in vivo; Charles River CD rats, males and females.
Where [7] appears, read: rat, p.o., 250 μg trypsin in one hindlimb, 3.0 kg force one hour after drug, n exceeds 10.

As to `CC(=O)Nc1ccc(O)cc1` [Acetaminophen], the results for the ED50 in data set [1] and in data set [2] (setting [7]) were 72 ± 8.6 mg/kg and 13 ± 1.7 mg/kg, respectively.

In the case of `CC(=O)Oc1ccccc1C(=O)O` [Aspirin], the ED50 in data set [3] (Mus musculus) was found to be 21 ± 3.4 mg/kg; in data set [1], 50 ± 8.1 mg/kg; in data set [2] (Rattus norvegicus), 14 ± 2.7 mg/kg; in data set [4] (Rattus norvegicus), 137 ± 16.9 mg/kg; in data set [5] (Rattus norvegicus, 3 h) it was 28 ± 3.2 mg/kg.

For `OC[C@H]1O[C@@H](n2cnc3c(Nc4ccccc4)ccnc32)[C@H](O)[C@@H]1O` [Compound A, 7-anilino-3-β-D-ribofuranosyl-3H-imidazo[4,5-b]pyridine], the ED50 in data set [3] (mouse, p.o., n exceeds 10) was determined as 0.33 ± 0.038 mg/kg; in data set [1], 0.65 ± 0.06 mg/kg; in data set [2] (setting [7]), 0.1 ± 0.03 mg/kg; in data set [4] (rat, p.o., n exceeds 10) it was 0.74 ± 0.093 mg/kg; in data set [5] (rat, p.o., 3 hour exudate volume, n exceeds 10), 0.24 ± 0.063 mg/kg. In addition, in data set [6], the LD50 is greater than 100 mg/kg.

As usually defined, the ED50 is the midpoint of the dose-response relation. One may read the LD50 as the dose expected to kill half of the subjects tested. Higher therefore signals lower toxicity.
